From US20040186098A1 (Amgen Inc., priority 1997, published 2004)

What was measured:
FKBP12 = FKBP12 (Homo sapiens, UniProt P62942); assay: Ki test procedure: inhibition of peptidyl-prolyl isomerase (rotamase) activity of FKBP12, chymotrypsin-coupled assay; assay type: biochemical; conditions: apparent Ki
Source text: The inhibition of the prolyl peptidyl cis-trans isomerase activity of FKBP may be measured as an indicator of this affinity.
The binding to FBKP12 and inhibition of the peptidyl-prolyl isomerase (rotamase) activity of the compounds used in the inventive methods and pharmaceutical compositions can be evaluated by known methods described in the literature (Harding et al., Nature, 1989, 341:758-760; Holt et al. J. Am. Chem. Soc., 115:9923-9938).
The cis-trans isomerization of an alanine-proline bond in a model substrate, N-succinyl-Ala-Ala-Pro-Phe-p-nitroanilide, is monitored spectrophotometrically in a chymotrypsin-coupled assay, which releases para-nitroanilide from the trans form of the substrate. The inhibition of this reaction caused by the addition of different concentrations of inhibitor is determined, and the data is analyzed as a change in first-order rate constant as a function of inhibitor concentration to yield the apparent Ki values.
In a plastic cuvette are added […] of ice cold assay buffer (25 mM HEPES, pH 7.8, 100 mM NaCl), 10 mL of FKBP (2.5 mM in 10 mM Tris-Cl pH 7.5, 100 mM NaCl, 1 mM dithiothreitol), […] of chymotrypsin (50 mg/ml in 1 mM HCl) and […] of test compound at various concentrations in dimethyl sulfoxide. The reaction is initiated by the addition of 5 mL of substrate (succinyl-Ala-Phe-Pro-Phe-para-nitroanilide, 5 mg/mL in 2.35 mM LiCl in trifluoroethanol).
The absorbance at 390 nm versus time is monitored for 90 seconds using a spectrophotometer and the rate constants are determined from the absorbance versus time data files.

outer hair cells (OHC) = assay: Intramiddle ear neomycin-induced ototoxicity, compound given into the middle ear, outer hair cell loss; assay type: in vivo, guinea pig; conditions: 10 ng in the middle ear
Procedure: Twenty guinea pigs used in this study were divided into two groups: 10 animals received 10 ng and 10 received 1 ng of the sensorineurotrophic compound.
Sensorineurotrophic compound stock A: A stock solution of sensorineurotrophic compound at 1 mg/10 ml in 100% ethanol was prepared and then diluted and mixed in Intralipid at 10 ng/100 μl.
Sensorineurotrophic compound stock B: A stock solution of sensorineurotrophic compound at 1 mg/100 ml in 100% ethanol was prepared and then diluted and mixed in 20% Intralipid at 1 ng/100 μl.
Animals were anesthetized with an intramuscular injection of a mixture of ketamine (80 mg/kg) and xylazine (4 mg/kg). Through a post-auricular incision, the right bulla was identified. A hole was drilled to open the middle ear cavity (care was taken not to injure the tympanic annulus or ossicles). A piece of gelfoam (˜2 mm^3) soaked with the sensorineurotrophic compound solution was inserted into the round window niche. The remaining sensorineurotrophic compound solution (˜100 μl) then was injected into the middle ear cavity. In the 10 ng dose group, 100 μl of sensorineurotrophic compound stock A was administered; and in the 1 ng dose group, 100 μl of sensorineurotrophic compound stock B was administered to the middle ear cavity. The hole was covered with a piece of clear plastic sheet which was stuck on the skull with a superglue. The incision was closed with clips. The same procedure was performed at the left bulla, but 100 μl of vehicle solution instead of sensorineurotrophic compound solution was administered. The animals were maintained in the prone position until they woke up to ensure filling of the middle ear cavity.
After two days, the animals received a second middle ear administration of sensorineurotrophic compound or vehicle together with neomycin. Solutions were prepared for the two groups of animals as follows:
Solution A: Neomycin was dissolved in sensorineurotrophic compound stock A described above. The final concentration of neomycin was 5 mg and the sensorineurotrophic compound concentration was 10 ng in a 100 μl vehicle solution.
Solution B: Neomycin was dissolved in sensorineurotrophic compound stock B described above. The final concentration of neomycin was 5 mg and the concentration of sensorineurotrophic compound was 1 ng in a 100 μl vehicle solution.
Solution C: Neomycin was dissolved in 20% Intralipid to a final concentration of 5 mg in 100 μl vehicle.
The plastic cover sheet on the bulla window was removed and the middle ear cavity was exposed. The old sensorineurotrophic compound or vehicle was sucked off and the old gelfoam was removed from the round window niche. A piece of gelfoam with fresh stock solution containing sensorineurotrophic compound and neomycin was administered to the round window niche, and the remaining solution (˜100 μl, solution A for the 10 ng dose group and solution B for the 1 ng dose group, respectively) was injected into the middle ear cavity of the right bulla.
Solution C (100 μl) was administered to the left ear for both groups in the same way.
Fourteen days after the second surgery, animals were perfused transcardially with a PBS flush followed by a fixative of 4% paraformaldehyde in 0.1M PBS. Immediately following the perfusion, the temporal bone was removed from the head. The bulla was opened and the cochlea was exposed. The apex was opened and the membrane of the round and oval windows was punched. The fixative solution was gently infused into the perilymphatic space through the apex hole and then allowed to flow out from windows. Then the cochleae were post-fixed in the same fixative solution for at least one day.
To identify and count hair cells in the organ of Corti, a direct immunostaining method was used to label the actin present naturally in the stereocilia bundles of the hair cells. The cochlea was dissected and the perilymphatic space was fully exposed. […]

Preyer's reflex = assay: Cisplatin-induced ototoxicity, compound given systemically, Preyer's reflex monitoring; assay type: in vivo, guinea pig; conditions: 30 mg/kg s.c. daily, cisplatin 4 mg/kg i.p. x4; 10 days after the 4th injection; vehicle group more than 80%
Procedure: Twenty male pigmented guinea pigs were divided into two groups (10 in each). One group was treated with Compound XXV while the other with vehicle—2 days prior to the first cisplatin injection. The test compound or vehicle was delivered by daily sub-cutaneous injection. On the day of injection, 100 mg of Compound XXV was dissolved in 1 ml of ethanol, then added to 20% Intralipid solution to a final volume of 3 ml and final Compound XXV concentration of 10 mg/0.3 ml. Each animal was subcutaneously injected with 30 mg/kg of Compound XXV solution Two days after the beginning of test compound injections (d2), cisplatin intraperitoneal injection was given to all animals at 4 mg/kg. After 3 days, a second cisplatin injection was given to all animals (d5). After another 3 days, a third injection (d8) and after 3 more days the fourth and last injection of cisplatin was given (d11). Test compound injections continued daily until day 21 (10 days after the last cisplatin injection).
Preyers' reflex is a rough indication of hearing function in rodents. […] The animals in this experiment were monitored daily for their Preyer's reflex. […]
Determination of hair cell numbers was determined in the same manner as in Example 4.

[1] = rotamase inhibition, Table XLI, Formulas I to XIV

Sequence of FKBP12 (P62942 whole entry, species assumed): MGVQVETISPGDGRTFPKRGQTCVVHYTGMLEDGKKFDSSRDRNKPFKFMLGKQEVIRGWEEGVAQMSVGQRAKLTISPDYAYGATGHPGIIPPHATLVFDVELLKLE

Ki (FKBP12; FKBP12 rotamase inhibition)	SMILES	Ki (FKBP12; [1])	also measured
0.001 to 0.05 µM	O=C(SC(CCc1ccccc1)CCc1ccccc1)C1CCCCN1C(=O)Nc1ccccc1 (stereo not shown) [Compound 113]		
0.001 to 0.05 µM	O=C(SCCCc1cccnc1)C1CCCN1C(=S)NC12CC3CC(CC(C3)C1)C2 (stereo not shown) [Compound 108]		
0.051 to 0.2 µM	CCC(C)(C)NC(=O)N1CCCC1C(=O)SCCCc1ccc(OC)cc1 (stereo not shown) [Compound 103]		

Continued, molecule first:

SMILES	Ki (FKBP12; FKBP12 rotamase inhibition)	Ki (FKBP12; [1])	also measured
CCC(C)(C)C(=O)C(=O)N1CSC[C@@H]1C(=O)OCCCc1ccccc1 [Compound 80, 3-phenyl-1-propyl(2S)-1-(3,3-dimethyl-1,2-dioxopentyl)-2-(4-thiazolidine)carboxylate]		0.215 µM	
CCC(C)(C)C(=O)C(=O)N1CCC[C@H]1C(=O)SCCC(c1ccccc1)c1ccccc1 [Compound XVI]			difference in the number of OHCs lost, vehicle vs compound (FIG. 8) (outer hair cells (OHC); 5 mg neomycin, group mean): over 50%; loss of hair cells in the second turn (turn 3), in words (outer hair cells (OHC); neomycin (FIG. 9)): completely prevent the loss; loss of hair cells in the basal turn (turn 4) (outer hair cells (OHC); neomycin, vehicle almost 100% (FIG. 9)): around 30%
O=C(C(=O)N1CCC[C@H]1C(=O)SCCc1ccccc1)C1CCCC1 [Compound 28, 2-Phenyl-1-ethyl (2S)-1-(1-cyclopentyl-1,2-dioxoethyl)-2-pyrrolidinecarbothioate]		0.108 µM	
O=C(C(=O)N1CCCCC1C(=O)SCCc1ccccc1)c1ccccc1 (stereo not shown) [Compound 14]		0.313 µM	
CCC(C)(C)C(=O)C(=O)N1CCCCC1C(=O)SCCC(c1ccccc1)c1ccccc1 (stereo not shown) [Compound XXV]			animals that lost Preyer's reflex (Preyer's reflex): about 20 % of the animals
